The values that follow come from patent US20090291156A1, “HERBAL COMPOSITION FOR SKIN CARE” (SAGITTARIUS LIFE SCIENCE CORP., priority 2008, published 2009).

Test [1] is described as follows: Radical scavenging activity examined by DPPH. The class given is biochemical. As to conditions: 0.1 mM DPPH, 30 minutes. The protocol: Herbal preparations with the designated final concentrations was mixed with 0.1 mM DPPH (2,2-diphenyl-1-picrylhydrazyl), incubated at room temperature in dark for 30 minutes. Absorbance at 517 nm was read by Varian Cary 50 Tablet UV-Visible Spectrophotometer. Vitamin C and vitamin E served as positive controls.
For orientation: DPPH is a stable violet radical that fades when it is reduced.

The test system of test [2] is dermal fibroblast collagen and glycosaminoglycan synthesis. Kind of test: Stimulation of dermal fibroblast collagen and glycosaminoglycan synthesis (Sirius red, Safranin O, Alcian blue staining). The class given is cell-based, Human. The protocol:
Human foreskin dermal fibroblasts were cultured in DMEM+10% FCS+Penicillin G (100 unit/ml)/Streptomycin (100 ug/ml)+Glutamine (2 mM)+Sodium pyruvate (0.1 mM) (C-medium) under humidifying atmosphere containing 5% CO2 at 37° C.
5×10^4 cells were plated into each well of 48 multiwell plate. Three to four days later, the cells reached confluency. The medium was replaced with fresh C-medium with or without H2O2 containing 25 ug/ml vitamin C with herbal preparations, Genistein or vitamin A. After treatment for 7 days, the cells were fixed with 10% formalin in saline, and stained with Sirius red, Safranin O or Alcian blue (at pH2.5 for hyaluronic acid staining). The relative amount of extracellular matrix deposition was estimated by visual comparison of the intensity and area of the respective stains.
At the end of treatments, the cells were washed twice with PBS, and were irradiated by UV (365 nm) at 20 mJ/cm^2 in PBS. Fresh serum free medium was replaced, and the cells were fixed and stained 24 hours later.

Regarding vitamin E [Vit. E], the entries for the “% DPPH radical scavenging” value in test [1] (0.01 mM) and in test [1] (0.1 mM) were 70.1% and 86.8%, respectively.

For the compound `O=c1c(-c2ccc(O)cc2)coc2cc(O)cc(O)c12` [Genistein], the “effect on collagen and glycosaminoglycan synthesis (words, Table 3)” value in test [2] (10 μM, in the presence of 0.1 mM H2O2) is “did not show significant effect”. The “effect on collagen and glycosaminoglycan synthesis (words, Table 2)” value in test [2] (10 uM, without H2O2) was “did not show significant effect”.

`O=C1O[C@H]([C@@H](O)CO)C(O)=C1O` [Vit. C, Vitamin C]: the “% DPPH radical scavenging” value is reported as 75.0% in test [1] (0.001 mM) and 99.3% in test [1] (0.01 mM).

Consider Vitamin A, for which the “activity on collagen and glycosaminoglycan synthesis (words, FIG. 2)” value in test [2] (1 μM, in the presence of 0.05 mM H2O2) is given as “did not show significant activity”. Further, the “activity on collagen and glycosaminoglycan synthesis compared to control (words, FIG. 1)” value in test [2] (1 μM, without H2O2) is recorded as “did not show significant activity”. In addition, the “effect on collagen and glycosaminoglycan synthesis (words, Table 5)” value in test [2] (10 μM, UV 365 nm at 20 mJ/cm^2) is listed as “did not show significant effect”. The “effect on collagen and glycosaminoglycan synthesis (words, Table 4)” value in test [2] (10 μM, no UV) was “did not show significant effect”.
